Assay results as given in patent US5786480A, “4-substituted pyrazoloquinoline derivatives” (Schering Corporation, priority 1996, dated 1998).
Converted amounts (≈) assume the structure as drawn.

How the values were obtained:
[1] = test system: HSV Early Gene Expression; experiment: Transient Expression Assay for Effects Against HSV Early Gene Expression (beta Galactosidase Assay, βgal); type: cell-based
Protocol: (§1) The compound toxicity assay (3H-LEU), Plaque Reduction Assay for HSV Antiviral Activity (Plaque), and Transient Expression Assay for Effects Against HSV Early Gene Expression (β Galactosidase Assay or βgal) were carried out as set forth in U.S. Pat. No. 5,175,151 which is hereby incorporated by reference.

[2] = test system: HSV; experiment: Plaque Reduction Assay for HSV Antiviral Activity (Plaque); type: cell-based
Protocol: as §1

[3] = compound toxicity assay (3H-LEU); type: cell-based
Protocol: as §1

[4] = test system: HSV-1; conditions: Haines et al., U.S. Pat. No. 4,757,088; cited from earlier work
[5] = test system: HSV; conditions: humans; Haines et al.; cited from earlier work
[6] = test system: herpes virus; conditions: addition of panthothenic acid or its alcohol and salt forms, dexpanthenol and pantothenate; Haines et al.; cited from earlier work
[7] = test system: HSV-2; conditions: Haines et al., U.S. Pat. No. 4,757,088; cited from earlier work
[8] = test system: herpes virus; conditions: mammals; Haines et al., U.S. Pat. No. 4,757,088; cited from earlier work

Row | SMILES | IC50 [1] [µg/mL] | IC50 [2] [µg/mL] | also measured
1 | COc1ccc2nc3[nH]nc(C)c3c(NCCOCCO)c2c1 [(1)] | 5 (≈ 15.8 µM) | – | –
2 | COc1ccc2nc3[nH]nc(C)c3c(NCCO)c2c1 [(3)] | 1.3 (≈ 4.77 µM) | 2.3 (≈ 8.45 µM) | CC50 [3]: 8.2 µg/mL (≈ 30.1 µM)
3 | COc1ccc2nc3[nH]nc(C)c3c(NCCN3CCOCC3)c2c1 [(4)] | 20 (≈ 58.6 µM) | 10 (≈ 29.3 µM) | CC50 [3]: 100 µg/mL (≈ 293 µM)
4 | COc1ccc2nc3[nH]nc(C)c3c(NCCc3ccccn3)c2c1 [(5)] | 1 (≈ 3 µM) | 7.5 (≈ 22.5 µM) | –
5 | CCCCNc1c2cc(OC)ccc2nc2[nH]nc(C)c12 [(17)] | < 3 | – | CC50 [3]: 3.2 µg/mL (≈ 11.3 µM)
6 | CCCCNc1c2cc(C)ccc2nc2[nH]nc(C)c12 [(18)] | 3 (≈ 11.2 µM) | – | CC50 [3]: 21.5 µg/mL (≈ 80.1 µM)
7 | CCCCNc1c2cc(OC)cc(C)c2nc2[nH]nc(C)c12 [(19)] | 3 (≈ 10.1 µM) | – | CC50 [3]: 21.5 µg/mL (≈ 72.1 µM)
8 | COc1ccc2nc3[nH]nc(C)c3c(NCCCN(C)C)c2c1 [(20)] | 0.8 (≈ 2.55 µM) | – | –
9 | COc1ccc2nc3c(cc2c1)c(C)nn3C(=O)[C@@H](N)C(C)C [(21)] | 0.2 (≈ 0.64 µM) | 20 (≈ 64 µM) | –
10 | COc1ccc2nc3c(cc2c1)c(C)nn3C(=O)[C@H](C)N [(22)] | 0.2 (≈ 0.703 µM) | 0.2 (≈ 0.703 µM) | –
11 | COc1ccc2nc3c(c(C)nn3C(=O)[C@@H](N)C(C)C)c(NCCN3CCOCC3)c2c1 [(23)] | 0.2 (≈ 0.454 µM) | 20 (≈ 45.4 µM) | –
12 | CNCC(=O)n1nc(C)c2cc3cc(OC)ccc3nc21 [(24)] | 0.2 (≈ 0.703 µM) | 2 (≈ 7.03 µM) | –
13 | COc1ccc2nc3c(cc2c1)c(C)nn3C(=O)C(C)(C)N [(25)] | 0.2 (≈ 0.67 µM) | 20 (≈ 67 µM) | –
14 | COc1ccc2nc3[nH]nc(C)c3c(NCC(=O)O)c2c1 [(27)] | 20 (≈ 69.9 µM) | – | –
15 | COc1ccc2nc3[nH]nc(C)c3c(NCC(=O)NCCCN3CCCC3=O)c2c1 [(28)] | 2 (≈ 4.87 µM) | 20 (≈ 48.7 µM) | –
16 | COc1ccc2nc3[nH]nc(C)c3c(NCC(=O)NCCN3CCCCC3)c2c1 [(29)] | 6 (≈ 15.1 µM) | 20 (≈ 50.4 µM) | –
17 | COc1ccc2nc3[nH]nc(C)c3c(NCC(=O)NCCN3CCOCC3)c2c1 [(30)] | 2 (≈ 5.02 µM) | 20 (≈ 50.2 µM) | –
18 | CCC(C)[C@H](N)C(=O)n1nc(C)c2c(Cl)c3cc(OC)ccc3nc21 (some centres unmarked) [(31)] | 0.2 (≈ 0.554 µM) | 0.8 (≈ 2.22 µM) | –
19 | COc1ccc2nc3c(c(C)nn3C(=O)[C@H](C)N)c(Cl)c2c1 [(32)] | 1.8 (≈ 5.65 µM) | 0.2 (≈ 0.627 µM) | –
20 | COc1ccc2nc3c(c(C)nn3C(=O)[C@@H](C)N)c(Cl)c2c1 [(33)] | 0.5 (≈ 1.57 µM) | 0.2 (≈ 0.627 µM) | –
21 | CCN(CC)CC(=O)Nc1c(C)cccc1C [lidocaine, 2-(diethylamino)-N-(2,6-dimethylphenyl)acetamide] | – | – | antiviral agent in cell culture against HSV-1 [4]: antiviral agent in cell culture against HSV-1; effective in the treatment of HSV oral and genital lesions [5]: particularly effective; enhancement of antiviral activity [6]: significantly enhances; antiviral agent in cell culture against HSV-2 [7]: antiviral agent in cell culture against HSV-1 and HSV-2; able to treat herpes virus infections [8]: able to treat herpes virus infections of mammals
